# Assay results taken from patent US11214538B2, “Farnesoid X receptor agonists and uses thereof” (Metacrine, Inc., priority 2015, dated 2022).
# Biological target: T1, hFXR (Homo sapiens, UniProt Q96RI1)
# T1 construct: expressed in transfected cells; host or cells: CV-1 cells
# T1 sequence (Q96RI1 1-486): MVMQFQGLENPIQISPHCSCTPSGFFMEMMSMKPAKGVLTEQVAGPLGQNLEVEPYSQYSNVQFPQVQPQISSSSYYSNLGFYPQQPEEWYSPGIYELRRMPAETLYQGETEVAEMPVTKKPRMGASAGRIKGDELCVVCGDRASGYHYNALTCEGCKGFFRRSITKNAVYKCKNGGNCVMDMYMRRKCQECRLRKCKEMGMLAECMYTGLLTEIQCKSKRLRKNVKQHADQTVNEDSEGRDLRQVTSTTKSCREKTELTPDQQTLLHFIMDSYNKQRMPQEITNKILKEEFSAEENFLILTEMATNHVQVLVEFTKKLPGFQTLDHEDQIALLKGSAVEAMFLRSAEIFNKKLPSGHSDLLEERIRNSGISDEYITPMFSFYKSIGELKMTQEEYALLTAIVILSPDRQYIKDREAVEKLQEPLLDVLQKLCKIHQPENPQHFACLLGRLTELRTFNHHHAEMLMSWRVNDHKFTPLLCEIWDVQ
# T1 sequence (P19793 1-462 partner): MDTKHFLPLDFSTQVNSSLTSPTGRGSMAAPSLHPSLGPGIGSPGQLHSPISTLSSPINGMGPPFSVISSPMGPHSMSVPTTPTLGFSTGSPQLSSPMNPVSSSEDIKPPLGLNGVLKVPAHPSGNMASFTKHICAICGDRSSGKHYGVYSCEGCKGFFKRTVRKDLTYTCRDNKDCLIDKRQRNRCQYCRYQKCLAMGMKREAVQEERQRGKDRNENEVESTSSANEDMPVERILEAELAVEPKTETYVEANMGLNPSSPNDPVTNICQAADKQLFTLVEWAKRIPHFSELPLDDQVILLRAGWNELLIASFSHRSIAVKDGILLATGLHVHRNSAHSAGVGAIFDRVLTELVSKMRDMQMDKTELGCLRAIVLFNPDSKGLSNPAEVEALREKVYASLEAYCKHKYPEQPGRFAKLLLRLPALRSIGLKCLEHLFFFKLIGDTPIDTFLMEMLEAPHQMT
# Test: In Vitro FXR Assay (TK), luciferase reporter in transfected CV-1 cells
# Type: cell-based
# Details: CV-1 cells transfected with hFXR, hRXR, TK-ECRE-luc; 18 hrs incubation; luminescence; compounds with a maximum efficacy of <25% of the Fexaramine control classified as '+'
# Description: Example B-2: In Vitro FXR Assay (TK)
# CV-1 cells were seeded at a density of 2,000,000 cells in a T175 flask with DMEM+10% charcoal double-stripped FBS and incubated at 37° C. in 5% CO2 for 18 h (O/N).
# After 18 h of incubation, the medium in the T175 flask was changed with fresh DMEM+10% charcoal super-stripped serum. In a polypropylene tube, 2500 μL OptiMEM (Life Technologies, Cat #31985-062) was combined with expression plasmids for hFXR, hRXR, TK-ECRE-luc and pCMX-YFP. The tube was then briefly vortexed and incubated at room temperature for 5 minutes. Transfection reagent (X-tremeGENE HP from Roche, Cat #06 366 236 001) was added to the OptiMEM/plasmid mixture vortexed and incubated at room temperature for 20 minutes. Following incubation, the transfection reagent/DNA mixture complex was added to cells in the T175 flask and the cells were incubated at 37° C. in 5% CO2 for 18 h (O/N).
# Compounds were serially diluted in DMSO and added to transfected CV-1 cells. The cells were then incubated for 18 hrs. The next day cells were lysed and examined for luminescence.
row,EC50 [µM],SMILES
1,≤ 3,"CN(C)c1ccc(-c2ccc(CN(C(=O)C3CCCCC3)c3cccc(-c4cc(=O)n(C)s4)c3)cc2)cc1 [Compound 44, N-((4′-(Dimethylamino)-[1,1′-biphenyl]-4-yl)methyl)-N-(3-(2-methyl-3-oxo-2,3-dihydroisothiazol-5-yl)phenyl)cyclohexanecarboxamide]"
2,≤ 3,"CN(C)c1ccc(-c2ccc(CN(C(=O)C3CCCCC3)c3cccc(CCc4ncco4)c3)cc2)cc1 [Compound 22, N-((4′-(Dimethylamino)-[1,1′-biphenyl]-4-yl)methyl)-N-(3-(2-(oxazol-2-yl)ethyl)phenyl)cyclohexanecarboxamide]"
3,3 to 10,"COc1ccc([C@H]2CC[C@H](CN(c3cccc(N4CCC(OC)C4)c3)C(=O)[C@H]3CC[C@H](O)CC3)CC2)cc1C (stereo partly drawn) [Compound 47, trans-4-Hydroxy-N-((trans-4-(4-methoxy-3-methylphenyl)cyclohexyl)methyl)-N-(3-(3-methoxypyrrolidin-1-yl)phenyl)cyclohexanecarboxamide]"
4,≤ 3,"COc1ccc(-c2cccc(N(Cc3ccc(-c4ccc(N(C)C)cc4)cc3)C(=O)C3CCCCC3)c2)s1 [Compound 31, N-((4′-(Dimethylamino)-[1,1′-biphenyl]-4-yl)methyl)-N-(3-(5-methoxythiophen-2-yl)phenyl)cyclohexanecarboxamide]"
5,3 to 10,"CN(C)c1ccc(-c2ccc(CN(C(=O)C3CCCCC3)c3cccc(/C=C/c4ccncc4)c3)cc2)cc1 [Compound 28, (E)-N-((4′-(Dimethylamino)-[1,1′-biphenyl]-4-yl)methyl)-N-(3-(2-(pyridin-4-yl)vinyl)phenyl)cyclohexanecarboxamide]"
6,≤ 3,"COc1ncc(-c2cccc(N(Cc3ccc(-c4ccc(N(C)C)cc4)cc3)C(=O)C3CCCCC3)c2)s1 [Compound 29, N-((4′-(Dimethylamino)-[1,1′-biphenyl]-4-yl)methyl)-N-(3-(2-methoxythiazol-5-yl)phenyl)cyclohexanecarboxamide]"
7,≤ 3,"COc1ccc([C@H]2CC[C@H](CN(c3cccc(N4CCC(OC)CC4)c3)C(=O)[C@H]3CC[C@H](O)CC3)CC2)cc1C [Compound 49, trans-4-Hydroxy-N-((trans-4-(4-methoxy-3-methylphenyl)cyclohexyl)methyl)-N-(3-(4-methoxypiperidin-1-yl)phenyl)cyclohexanecarboxamide]"
8,≤ 3,"CN(C)c1ccc(-c2ccc(CN(C(=O)C3CCCCC3)c3cccc(/C=C/c4ccccn4)c3)cc2)cc1 [Compound 27, (E)-N-((4′-(Dimethylamino)-[1,1′-biphenyl]-4-yl)methyl)-N-(3-(2-(pyridin-2-yl)vinyl)phenyl)cyclohexanecarboxamide]"
9,3 to 10,"COCC1CCN(c2cccc(N(C[C@H]3CC[C@H](c4ccc(OC)c(C)c4)CC3)C(=O)[C@H]3CC[C@H](O)CC3)c2)C1 (stereo partly drawn) [Compound 48, trans-4-Hydroxy-N-((trans-4-(4-methoxy-3-methylphenyl)cyclohexyl)methyl)-N-(3-(3-(methoxymethyl)pyrrolidin-1-yl)phenyl)cyclohexanecarboxamide]"
10,≤ 3,"COc1ccc([C@H]2CC[C@H](CN(c3cccc(N4CC(OC)C4)c3)C(=O)[C@H]3CC[C@H](O)CC3)CC2)cc1C [Compound 45, trans-4-Hydroxy-N-((trans-4-(4-methoxy-3-methylphenyl)cyclohexyl)methyl)-N-(3-(3-methoxyazetidin-1-yl)phenyl)cyclohexanecarboxamide]"
11,3 to 10,"CN(C)c1ccc(-c2ccc(CN(C(=O)C3CCCCC3)c3cccc(-c4cccnc4)c3)cc2)cc1 [Compound 23, N-((4′-(Dimethylamino)-[1,1′-biphenyl]-4-yl)methyl)-N-(3-(pyridin-3-yl)phenyl)cyclohexanecarboxamide]"
12,3 to 10,"CCc1cncc(-c2cccc(N(Cc3ccc(-c4ccc(N(C)C)cc4)cc3)C(=O)C3CCCCC3)c2)c1 [Compound 33, N-((4′-(Dimethylamino)-[1,1′-biphenyl]-4-yl)methyl)-N-(3-(5-ethylpyridin-3-yl)phenyl)cyclohexanecarboxamide]"
13,≤ 3,"COCC1CN(c2cccc(N(C[C@H]3CC[C@H](c4ccc(OC)c(C)c4)CC3)C(=O)[C@H]3CC[C@H](O)CC3)c2)C1 [Compound 46, trans-4-Hydroxy-N-((trans-4-(4-methoxy-3-methylphenyl)cyclohexyl)methyl)-N-(3-(3-(methoxymethyl)azetidin-1-yl)phenyl)cyclohexanecarboxamide]"
14,3 to 10,"Cc1cncc(-c2cccc(N(Cc3ccc(-c4ccc(N(C)C)cc4)cc3)C(=O)C3CCCCC3)c2)c1 [Compound 24, N-((4′-(Dimethylamino)-[1,1′-biphenyl]-4-yl)methyl)-N-(3-(5-methylpyridin-3-yl)phenyl)cyclohexanecarboxamide]"
15,≤ 3,"COc1cc(-c2cccc(N(Cc3ccc(-c4ccc(N(C)C)cc4)cc3)C(=O)C3CCCCC3)c2)ncn1 [Compound 35, N-((4′-(Dimethylamino)-[1,1′-biphenyl]-4-yl)methyl)-N-(3-(6-methoxypyrimidin-4-yl)phenyl)cyclohexanecarboxamide]"
16,≤ 3,"COc1ccc(-c2cccc(N(Cc3ccc(-c4ccc(N(C)C)cc4)cc3)C(=O)C3CCCCC3)c2)cc1 [Compound 3.1, N-((4′-(Dimethylamino)-[1,1′-biphenyl]-4-yl)methyl)-N-(4′-methoxy-[1,1′-biphenyl]-3-yl)cyclohexanecarboxamide]"
17,≤ 3,"COc1cc(-c2cccc(N(Cc3ccc(-c4ccc(N(C)C)cc4)cc3)C(=O)C3CCCCC3)c2)sn1 [Compound 43, N-((4′-(Dimethylamino)-[1,1′-biphenyl]-4-yl)methyl)-N-(3-(3-methoxyisothiazol-5-yl)phenyl)cyclohexanecarboxamide]"
